What was measured:
CCK2R [1] = molecular target: T1, CCK2R (Homo sapiens, UniProt P32239); conditions: cited from earlier work
T1 sequence (P32239 1-447): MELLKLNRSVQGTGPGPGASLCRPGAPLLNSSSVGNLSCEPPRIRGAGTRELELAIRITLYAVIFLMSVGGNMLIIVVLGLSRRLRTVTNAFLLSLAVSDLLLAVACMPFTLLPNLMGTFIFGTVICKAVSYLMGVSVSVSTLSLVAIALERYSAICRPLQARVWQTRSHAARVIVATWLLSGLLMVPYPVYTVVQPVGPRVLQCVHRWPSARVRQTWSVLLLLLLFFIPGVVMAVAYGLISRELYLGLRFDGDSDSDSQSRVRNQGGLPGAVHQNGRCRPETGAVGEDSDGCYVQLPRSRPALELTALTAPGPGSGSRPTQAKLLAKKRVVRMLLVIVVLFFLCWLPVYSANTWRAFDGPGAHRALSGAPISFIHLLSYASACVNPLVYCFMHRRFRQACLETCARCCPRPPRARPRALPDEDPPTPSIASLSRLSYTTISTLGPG

[2] = test system: HEK 293 cells expressing the CCK2R; assay type: cell-based; conditions: for cell toxicity / potency: concentration range used (FIG. 16); for IC50: dose dependent toxicity
Method: FIGS. 13A-C show the results of a study on the cytotoxicity of conjugate 23 in HEK CCK2R cells, shown at varying hours from introduction. CW-2478 denotes conjugate 23, with FIG. 13A showing values at 2 hours, FIG. 13B showing the values at 4 hours, and FIG. 13C showing the values at 9 hours.
This may partly explain the modest in vivo antitumor observed activity despite its impressive antagonistic effects.

[3] = test system: subcutaneous PANC-1 tumor; conditions: oral Z-360 along with gemcitabine, cited from earlier work
[4] = test system: HEK 293 cells expressing CCK2R tumors; test: In vivo potency, subcutaneous HEK 293 CCK2R tumors; parameters: species or system nu/nu mice; conditions: for tumor size / growth during the period of the study / antitumor activity in comparison to untreated controls: 2 μmol/kg per injection
Method: Following the promising results obtained in vitro with the Z-360 targeted chemotherapeutics, antitumor effects of the compounds were investigated in vivo. HEK 293 cells expressing CCK2R (5.0×10^6 in 50% HC matrigel) were injected in the shoulder of 5-6 week old female nu/nu mice. Tumors were measured in two perpendicular directions every two to three days with vernier calipers, and their volumes calculated as 0.5×L×W^2 where L is the longest axis (in millimeters) and W is the axis perpendicular to L (in millimeters). Dosing solutions were prepared in saline and administered through either the lateral vein of the mice for Tubulysin B conjugates or intraperitoneally for desacetylvinblastine hydrazide conjugates. Dosing was initiated when the subcutaneous tumors reached ˜100 mm^3 in volume. Each mouse received 2 μmol/kg of the test conjugate in 100 microliters of saline per injection, three times a week for three weeks. Mouse weights were also recorded at each dosing as a measure of gross toxicity. Mice in the control groups received no treatment.

CCK2R [5] = molecular target: T1, CCK2R; test: Binding of 99mTc conjugates to HEK-293 CCK2R cells (cell bound radioactivity); parameters: expressed in transfected cells; host or cells: HEK-293, G418-selected, from Dr. Mark Hellmich (University of Texas at Galveston)
Method: CRL-1, CRL-2, CRL-3 and CRL-4 were chelated to ^99mTc and tested for binding using two transfected cell lines of HEK-CCK2R (HEK-293 CCK2R) and HEK-CCK2R splice cell line (HEK CCK2i4svR), obtained from Dr. Mark Hellmich (University of Texas at Galveston). Cells were cultured in Dulbecco's modified Eagles (Gibco) supplemented with 10% Fetal Bovine Serum and G418 disulfate (SIGMA; 400 μg/ml), 1% penicillin/streptomycin at 37° C. in a humidified 95% air, 5% CO2 atmosphere.
Competition studies were performed using 100 fold excess of free Z-360 containing corresponding peptide linker and no chelating moiety. HEK 293 CCK2R and HEK CCK2i4svR were seeded onto 24 well plates and allowed to become confluent over 48-72 hours. Spent medium in each well was replaced with 0.5 ml fresh media containing 0.5% BSA and increasing concentrations of the test article. After incubating for 1 h at 37° C. cells were rinsed with incubation solution (2×1.0 ml) to remove any unbound radioactivity. Cells were then resuspended on 0.5 ml 0.25N NaOH and cell radioactivity was counted using a γ-counter. The dissociation constant (KD) was calculated using a plot of cell bound radioactivity versus the concentration of the radiotracer using Graphpad Prism 4 and assuming a non-cooperative single site binding equilibrium.

[6] = three times a week for three weeks

| Molecule | cell toxicity / potency [2] | tumor size / growth during the period of the study [4, 6] | IC50 [2] [nM] | antitumor activity in comparison to untreated controls [4, 6] | further results |
| --- | --- | --- | --- | --- | --- |
| CC(C)(C)C(=O)CN1C(=O)[C@H](NC(=O)Nc2cccc(C(=O)O)c2)CN(C2CCCCC2)c2ccccc21 [Z-360, (R)-(−)-3-[3-(1-tert-butylcarbonylmethyl-2-oxo-5-cyclohexyl-1,3,4,5-tetrahydro-2H-1,5-benzodiazepin-3-yl)ureido]benzoic acid monohydrate] | no concentration dependent cell toxicity | – | – | – | selectivity ratio over CCK1R (CCK2R [1]; CCK2R over CCK1R): 672; Ki (CCK2R [1]): 0.47 nM; inhibition of subcutaneous PANC-1 tumor growth ([3]; compared with either agent alone): 27.1%; survival ([3]; compared with the vehicle): significantly increased survival |
| CC[C@]1(O)CC2CN(CCc3c([nH]c4ccccc34)[C@@](C(=O)OC)(c3cc4c(cc3OC)N(C)[C@H]3[C@@](O)(C(=O)NNC(=O)OCCSSC[C@H](NC(=O)[C@@H](CCC(=O)NC[C@H](O)[C@@H](O)[C@H](O)[C@H](O)CO)NC(=O)[C@@H](CCC(=O)O)NC(=O)[C@@H](CCC(=O)NC[C@H](O)[C@@H](O)[C@H](O)[C@H](O)CO)NC(=O)[C@@H](CCC(=O)O)NC(=O)CCCCCCCN)C(=O)O)[C@H](O)[C@]5(CC)C=CCN6CC[C@]43[C@@H]65)C2)C1 (some centres unmarked) [Unt-DAVBH] | little to no potency | grew at almost the same rate as untreated controls | – | – | – |
| tubulysin b [reference compound] | – | – | 1.3 | – | – |
| CC(C)(C)C(=O)CN1C(=O)[C@H](NC(=O)Nc2cccc(C(=O)N[C@@H](CCC(=O)O)C(=O)N[C@@H](CCC(=O)NC[C@H](O)[C@@H](O)[C@H](O)[C@H](O)CO)C(=O)N[C@@H](CCC(=O)O)C(=O)N[C@@H](CCC(=O)NC[C@H](O)[C@@H](O)[C@H](O)[C@H](O)CO)C(=O)NC[C@H](N)C(=O)N[C@@H](CC(=O)O)C(=O)N[C@@H](CS)C(=O)O)c2)CN(C2CCCCC2)c2ccccc21 [CRL-2 ^99mTc, metal not drawn] | – | – | – | – | specificity of binding (competition with free Z-360) (CCK2R [5]; compared with CRL-1 99mTc): significantly higher specificity |
| CCCC(=O)OCN(C(=O)[C@@H](NC(=O)C1CCCCN1C)C(C)CC)[C@H](C[C@@H](OC(C)=O)c1nc(C(=O)N[C@@H](Cc2ccc(O)cc2)C[C@H](C)C(=O)NNC(=O)OCCSSC[C@H](NC(=O)[C@@H](CCC(=O)NC[C@H](O)[C@@H](O)[C@H](O)[C@H](O)CO)NC(=O)[C@@H](CCC(=O)O)NC(=O)[C@@H](CCC(=O)NC[C@H](O)[C@@H](O)[C@H](O)[C@H](O)CO)NC(=O)[C@@H](CCC(=O)O)NC(=O)CCCCCCCNC(=O)c2cccc(NC(=O)N[C@@H]3CN(C4CCCCC4)c4ccccc4N(CC(=O)C(C)(C)C)C3=O)c2)C(=O)O)cs1)C(C)C (some centres unmarked) [conjugate 22] | – | reduction of tumor sizes | 12 | remarkable antitumor activity | disappearance of tumors ([4]; 2 μmol/kg, three times a week for three weeks, lateral vein): ⅗ |
| CC[C@]1(O)C[C@@H]2CN(CCc3c([nH]c4ccccc34)[C@@](C(=O)OC)(c3cc4c(cc3OC)N(C)[C@H]3[C@@](O)(C(=O)NNC(=O)OCCSSC[C@H](NC(=O)[C@H](CCC(=O)NC[C@H](O)[C@@H](O)[C@H](O)[C@H](O)CO)NC(=O)[C@H](CCC(=O)O)NC(=O)[C@H](CCC(=O)NC[C@H](O)[C@@H](O)[C@H](O)[C@H](O)CO)NC(=O)[C@H](CCC(=O)O)NC(=O)CCCCCCCNC(=O)c5cccc(NC(=O)N[C@@H]6CN(C7CCCCC7)c7ccccc7N(CC(=O)C(C)(C)C)C6=O)c5)C(=O)O)[C@H](O)[C@]5(CC)C=CCN6CC[C@]43[C@@H]65)C2)C1 [conjugate 23] | – | remain the same size | – | remarkable antitumor activity | H & E staining of remaining tumor masses ([4]; conjugate 23 and conjugate 23+competition groups): contain very few malignant cells |
| vinblastine [reference compound] | – | – | 8 | – | – |
| CC(C)(C)C(=O)CN1C(=O)[C@H](NC(=O)Nc2cccc(C(=O)NC[C@H](N)C(=O)N[C@@H](CC(=O)O)C(=O)N[C@@H](CS)C(=O)O)c2)CN(C2CCCCC2)c2ccccc21 [CRL-4 ^99mTc, metal not drawn] | – | – | – | – | Kd (CCK2R [5]; 1 h at 37° C., 99mTc chelated, read-out: Kd (nM) HEK-293-CCK2R Cells): 270 nM |
| CCCC(=O)OCN(C(=O)[C@@H](NC(=O)C1CCCCN1C)C(C)CC)[C@H](C[C@@H](OC(C)=O)c1nc(C(=O)N[C@@H](Cc2ccc(O)cc2)C[C@H](C)C(=O)NNC(=O)OCCSSC[C@H](NC(=O)[C@@H](CCC(=O)NC[C@H](O)[C@@H](O)[C@H](O)[C@H](O)CO)NC(=O)[C@@H](CCC(=O)O)NC(=O)[C@@H](CCC(=O)NC[C@H](O)[C@@H](O)[C@H](O)[C@H](O)CO)NC(=O)[C@@H](CCC(=O)O)NC(=O)CCCCCCCN)C(=O)O)cs1)C(C)C (some centres unmarked) [Unt-TubH] | little to no potency | – | – | modest tumor inhibition | – |

— patent US12485179B2, “Cholecystokinin B receptor targeting for imaging and therapy” (Purdue Research Foundation, priority 2012, dated 2025)
